Laboratory results: patent US20260262643A1, “HERBICIDAL BENZOXAZINES” (FMC CORPORATION, priority 2022, published 2026)

Legend:
[1] = system: kochia; assay: Test C postemergence; type: in vivo, Bassia scoparia; settings: 10 days
Summary of the method: (§1)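 Visual injury score, 0–100 (100 = complete control), taken 10 days after treatment relative to untreated controls. Pre: directed spray onto soil over sown seeds. Post: foliar spray at one- to two-leaf stage, 2–10 cm. Solvent/surfactant formulation; loam–sand soil; greenhouse.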

[2] = system: barnyardgrass; assay: Test C preemergence; type: in vivo, Echinochloa crusgalli; settings: 0 to 100 scale (0 no effect, 100 complete control)
Summary of the method: as §1

[3] = system: corn; assay: Test C preemergence; type: in vivo, Zea mays; settings: 0 to 100 scale (0 no effect, 100 complete control)
Summary of the method: as §1

[4] = system: soybean; assay: Test C postemergence; type: in vivo, Glycine max; settings: 10 days
Summary of the method: as §1

[5] = system: wheat; assay: Test C postemergence; type: in vivo, Triticum aestivum; settings: 10 days
Summary of the method: as §1

[6] = system: kochia; assay: Test C preemergence; type: in vivo, Bassia scoparia; settings: Preemergence, 500 g ai/ha; visual rating after 10 days, 0 to 100 scale (0 no effect, 100 complete control)
Summary of the method: as §1

[7] = system: blackgrass; assay: Test C preemergence; type: in vivo, Alopecurus myosuroides; settings: 0 to 100 scale (0 no effect, 100 complete control)
Summary of the method: as §1

[8] = system: barnyardgrass; assay: Test D flooded paddy test; type: in vivo, Echinochloa crus-galli; settings: 250 g ai/ha, applied to paddy water, visual rating after 13 to 14 days, scale 0 to 100 (0 no effect, 100 complete control)
Summary of the method: (§2)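 Visual ratings from 0, meaning no effect, to 100, meaning complete control, were assigned against untreated controls 13 to 14 days after compounds were added to the floodwater of pots kept 3 cm deep, with plants at the 2-leaf stage.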

[9] = system: ryegrass, Italian; assay: Test C preemergence; type: in vivo, Lolium multiflorum; settings: 0 to 100 scale (0 no effect, 100 complete control)
Summary of the method: as §1

[10] = system: corn; assay: Test C postemergence; type: in vivo, Zea mays; settings: 10 days
Summary of the method: as §1

[11] = system: ryegrass, Italian; assay: Test C postemergence; type: in vivo, Lolium multiflorum; settings: 10 days
Summary of the method: as §1

[12] = system: rice; assay: Test D flooded paddy test; type: in vivo, Oryza sativa; settings: 250 g ai/ha, applied to paddy water, visual rating after 13 to 14 days, scale 0 to 100 (0 no effect, 100 complete control)
Summary of the method: as §2

[13] = system: sedge, umbrella; assay: Test D flooded paddy test; type: in vivo, Cyperus difformis; settings: 250 g ai/ha, applied to paddy water, visual rating after 13 to 14 days, scale 0 to 100 (0 no effect, 100 complete control)
Summary of the method: as §2

[14] = system: wheat; assay: Test C preemergence; type: in vivo, Triticum aestivum; settings: 0 to 100 scale (0 no effect, 100 complete control)
Summary of the method: as §1

[15] = system: soybean; assay: Test C preemergence; type: in vivo, Glycine max; settings: 0 to 100 scale (0 no effect, 100 complete control)
Summary of the method: as §1

[16] = system: green foxtail; assay: Test C postemergence; type: in vivo, Setaria viridis; settings: 10 days
Summary of the method: as §1

[17] = system: pigweed, palmer; assay: Test C postemergence; type: in vivo, Amaranthus palmeri; settings: 10 days
Summary of the method: as §1

[18] = system: barnyardgrass; assay: Test C postemergence; type: in vivo, Echinochloa crusgalli; settings: 10 days
Summary of the method: as §1

[19] = system: green foxtail; assay: Test C preemergence; type: in vivo, Setaria viridis; settings: 0 to 100 scale (0 no effect, 100 complete control)
Summary of the method: as §1

[20] = system: oat, wild; assay: Test C postemergence; type: in vivo, Avena fatua; settings: 10 days
Summary of the method: as §1

[21] = system: blackgrass; assay: Test C postemergence; type: in vivo, Alopecurus myosuroides; settings: 10 days
Summary of the method: as §1

[22] = system: horseweed; assay: Test C postemergence; type: in vivo, Erigeron canadensis; settings: 10 days
Summary of the method: as §1

[23] = system: galium; assay: Test C postemergence; type: in vivo, Galium aparine; settings: 10 days
Summary of the method: as §1

[24] = system: ducksalad; assay: Test D flooded paddy test; type: in vivo, Heteranthera limosa; settings: 250 g ai/ha, applied to paddy water, visual rating after 13 to 14 days, scale 0 to 100 (0 no effect, 100 complete control)
Summary of the method: as §2

[25] = system: oat, wild; assay: Test C preemergence; type: in vivo, Avena fatua; settings: 0 to 100 scale (0 no effect, 100 complete control)
Summary of the method: as §1

[26] = system: ragweed; assay: Test C preemergence; type: in vivo, Ambrosia artemisiifolia; settings: 0 to 100 scale (0 no effect, 100 complete control)
Summary of the method: as §1

[27] = system: ragweed; assay: Test C postemergence; type: in vivo, Ambrosia artemisiifolia; settings: 10 days
Summary of the method: as §1

[28] = system: pigweed, palmer; assay: Test C preemergence; type: in vivo, Amaranthus palmeri; settings: 0 to 100 scale (0 no effect, 100 complete control)
Summary of the method: as §1

[29] = 125 g ai/ha, postemergence, 0 to 100 scale, 0 no effect, 100 complete control
[30] = Postemergence, 500 g ai/ha, visual 0 to 100 scale (0 no effect, 100 complete control)
[31] = Preemergence, 500 g ai/ha, visual rating after 10 days
[32] = Test C, preemergence, 125 g ai/ha

CC(C)c1ncn(-c2ccc([S+]([O-])C(F)(F)F)c(C(=O)N3C[C@H](C)Oc4c(Cl)cccc43)c2)n1 (stereo partly drawn) [Compound 191]
20: Plant response rating, Kochia [1, 29] | Plant response rating, Kochia [1, 30] | Plant response rating, Blackgrass [7, 31] | Plant response rating, Ryegrass, Italian [9, 31]
10: Plant response rating, Wheat [5, 29] | Plant response rating, Wheat [5, 30] | Plant response rating, Barnyardgrass [18, 29] | Plant response rating, Barnyardgrass [18, 30]
50: Plant response rating, Galium [23, 30]
0: Plant response rating, Barnyardgrass [2, 31] | Barnyardgrass plant response rating [2, 32] | Plant response rating, Corn [3, 31] | Corn plant response rating [3, 32] | Plant response rating, Kochia [6] | Blackgrass plant response rating [7, 32] | Plant response rating, Barnyardgrass (Flood) [8] | Ryegrass, Italian plant response rating [9, 32] | Plant response rating, Corn [10, 29] | Plant response rating, Corn [10, 30] | Plant response rating, Ryegrass, Italian [11, 29] | Plant response rating, Ryegrass, Italian [11, 30] | Plant response rating, Rice (Flood) [12] | Plant response rating, Sedge, Umbrella (Flood) [13] | Plant response rating, Wheat [14, 31] | Wheat plant response rating [14, 32] | Plant response rating, Soybean [15, 31] | Soybean plant response rating [15, 32] | Plant response rating, Foxtail, Green [16, 29] | Plant response rating, Foxtail, Green [16, 30] | Plant response rating, Pigweed, Palmer [17, 29] | Plant response rating, Foxtail, Green [19, 31] | Foxtail, Green plant response rating [19, 32] | Plant response rating, Oat, Wild [20, 29] | Plant response rating, Oat, Wild [20, 30] | Plant response rating, Blackgrass [21, 29] | Plant response rating, Blackgrass [21, 30] | Plant response rating, Horseweed [22, 29] | Plant response rating, Horseweed [22, 30] | Plant response rating, Galium [23, 29] | Plant response rating, Ducksalad (Flood) [24] | Plant response rating, Oat, Wild [25, 31] | Oat, Wild plant response rating [25, 32] | Plant response rating, Ragweed [26, 31] | Ragweed plant response rating [26, 32] | Plant response rating, Ragweed [27, 29] | Plant response rating, Ragweed [27, 30] | Plant response rating, Pigweed, Palmer [28, 31] | Pigweed, Palmer plant response rating [28, 32]
90: Plant response rating, Soybean [4, 30]
40: Plant response rating, Soybean [4, 29]
30: Plant response rating, Pigweed, Palmer [17, 30]
